Measurements: patent US11351168B1 (Celgene CAR LLC, priority 2008, dated 2022)

Experiments:
[1] = test system: BTK signaling in Ramos cells; assay: BTK Ramos cellular assay (phosphorylation of BTK substrate PLCγ2); format: cell-based, human; conditions: Homo sapiens, 1 hour compound, anti-IgM stimulation, read-out: BTK Inhibition (Ramos cellular)
Summary of the method: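 Serum-starved Ramos Burkitt lymphoma cells treated 1 h with compound at 1, 0.1, 0.01 or 0.001 μM final. B-cell receptor stimulated with 1 μg anti-human IgM F(ab′)2, 10 min on ice. Lysates (16 μg protein) immunoblotted for phospho-PLCγ2.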

BTK = BTK (Homo sapiens (Human), UniProt Q06187); assay: Mass spectrometry for BTK (intact protein); format: binding; conditions: 1 hr, 10× fold excess of compound
Chain of BTK (Q06187 whole entry): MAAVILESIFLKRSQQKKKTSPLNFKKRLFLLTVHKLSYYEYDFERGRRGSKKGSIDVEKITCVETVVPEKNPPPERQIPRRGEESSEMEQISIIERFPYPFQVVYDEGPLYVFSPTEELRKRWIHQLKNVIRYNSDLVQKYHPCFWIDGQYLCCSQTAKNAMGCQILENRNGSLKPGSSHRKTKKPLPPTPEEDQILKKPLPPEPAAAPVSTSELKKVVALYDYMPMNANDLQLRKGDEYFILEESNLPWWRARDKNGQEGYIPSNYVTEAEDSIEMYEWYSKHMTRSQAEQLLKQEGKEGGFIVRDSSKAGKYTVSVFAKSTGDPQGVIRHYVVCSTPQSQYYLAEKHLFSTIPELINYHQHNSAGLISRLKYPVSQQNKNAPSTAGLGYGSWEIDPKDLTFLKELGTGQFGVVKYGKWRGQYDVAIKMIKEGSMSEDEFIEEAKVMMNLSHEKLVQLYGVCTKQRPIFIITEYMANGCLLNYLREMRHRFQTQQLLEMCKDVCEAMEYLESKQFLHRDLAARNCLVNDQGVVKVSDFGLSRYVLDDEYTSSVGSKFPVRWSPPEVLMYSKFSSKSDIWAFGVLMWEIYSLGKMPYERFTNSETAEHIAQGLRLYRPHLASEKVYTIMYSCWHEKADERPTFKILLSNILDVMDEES
Protocol: Mass Spectrometry for BTK
Intact BTK was incubated for 1 hr at a 10× fold excess of I-7 to protein. Aliquots (2 μl) of the samples were diluted with 10 μl of 0.1% TFA prior to micro C4 ZipTipping directly onto the MALDI target using Sinapinic acid as the desorption matrix (10 mg/ml in 0.1% TFA:Acetonitrile 20:80).

JAK3 kinase = JAK3 kinase (Homo sapiens (Human), UniProt P52333); assay: Mass spectrometry for Janus-3 kinase (JAK3); format: binding; conditions: 3 hrs at 10× excess, tryptic digestion
Chain of JAK3 kinase (P52333 whole entry): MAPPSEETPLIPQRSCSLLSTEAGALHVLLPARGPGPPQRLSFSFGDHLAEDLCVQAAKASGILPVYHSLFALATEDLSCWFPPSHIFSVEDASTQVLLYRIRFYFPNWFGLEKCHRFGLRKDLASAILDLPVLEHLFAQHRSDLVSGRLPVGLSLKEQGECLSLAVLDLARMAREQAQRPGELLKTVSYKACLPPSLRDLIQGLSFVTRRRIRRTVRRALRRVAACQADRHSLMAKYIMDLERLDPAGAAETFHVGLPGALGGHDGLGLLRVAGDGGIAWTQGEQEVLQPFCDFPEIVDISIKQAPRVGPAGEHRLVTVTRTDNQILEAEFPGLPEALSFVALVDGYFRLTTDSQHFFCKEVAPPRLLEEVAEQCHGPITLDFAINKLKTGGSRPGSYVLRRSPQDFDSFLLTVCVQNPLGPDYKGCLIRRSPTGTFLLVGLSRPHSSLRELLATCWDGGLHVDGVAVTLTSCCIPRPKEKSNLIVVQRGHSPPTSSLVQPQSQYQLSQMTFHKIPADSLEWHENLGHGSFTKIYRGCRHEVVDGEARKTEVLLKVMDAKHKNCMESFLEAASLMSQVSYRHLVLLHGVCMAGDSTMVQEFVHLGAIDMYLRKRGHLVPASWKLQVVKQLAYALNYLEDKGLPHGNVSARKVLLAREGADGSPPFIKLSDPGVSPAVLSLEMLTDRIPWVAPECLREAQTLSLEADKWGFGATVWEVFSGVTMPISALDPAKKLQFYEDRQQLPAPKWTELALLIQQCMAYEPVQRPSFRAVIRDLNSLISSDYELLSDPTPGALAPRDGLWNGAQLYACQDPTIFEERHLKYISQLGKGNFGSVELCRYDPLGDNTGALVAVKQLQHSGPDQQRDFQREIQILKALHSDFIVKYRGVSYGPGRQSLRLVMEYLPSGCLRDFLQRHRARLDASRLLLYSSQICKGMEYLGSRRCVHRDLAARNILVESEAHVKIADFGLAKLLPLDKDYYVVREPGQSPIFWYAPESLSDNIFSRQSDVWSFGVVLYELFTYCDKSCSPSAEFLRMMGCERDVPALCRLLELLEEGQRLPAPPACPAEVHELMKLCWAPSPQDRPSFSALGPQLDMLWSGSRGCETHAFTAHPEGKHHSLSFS
Protocol: Mass Spectrometry for Janus-3 Kinase (JAK3)
(§1) JAK3 kinase (33 pmols; Invitrogen) was incubated with (I-7) (327 pmols) for 3 hrs at 10× excess prior to tryptic digestion. Iodoacetamide was used as the alkylating agent after compound incubation. For tryptic digests a 5 ul aliquot (5.5 pmols) was diluted with 15 ul of 0.1% TFA prior to micro C18 Zip Tipping directly onto the MALDI target using alpha cyano-4-hydroxy cinnamic acid as the matrix (5 mg/ml in 0.1% TFA:Acetonitrile 50:50).
(§2) For tryptic digests the instrument was set in Reflectron mode with a pulsed extraction setting of 2200. Calibration was done using the Laser Biolabs Pep Mix standard ([…], 1296.69, 1672.92, 2093.09, 2465.20). For CID/PSD analysis the peptide was selected using cursors to set ion gate timing and fragmentation occurred at a laser power about 20% higher and He was used as the collision gas for CID. Calibration for fragments was done using the P14R fragmentation calibration for the Curved field Reflectron.

BTK in Ramos cells [2] = molecular target: T1, BTK in Ramos cells (Homo sapiens (Human), UniProt Q06187); assay: BTK occupancy from in vitro samples by ELISA (Ramos cells); format: cell-based; conditions: ELISA with probe I-215
T1 sequence (Q06187 whole entry): as the sequence (Q06187 whole entry) above
Source text: Measuring BTK Occupancy from In Vitro Samples by ELISA
In order to determine the amount of free BTK in cell or tissue lysates, an ELISA protocol was employed that utilizes a biotinylated probe compound that binds only to free, unoccupied BTK. The conjugated biotin is captured on a streptavidin-coated ELISA plate and detected with a mouse anti-BTK antibody (Becton Dickinson, Franklin Lakes, N.J., USA) and a secondary goat anti-mouse HRP antibody (Zymed, South San Francisco, Calif., USA).
All samples were prepared with equal concentrations of Biorad lysis buffer (Hercules, Calif., USA), 0.5% bovine serum albumin in PBS with 0.05% Tween-20 to give a final concentration of 1 μM I-215. Samples were incubated in a mixing plate for 1 hr at room temperature while shaking to allow probe compound I-215 to bind to free BTK. After incubation with I-215, samples were added to a washed, streptavidin-coated ELISA plate (Pierce, Rockford, Ill., USA) and incubated for 1 hr at room temperature while shaking. The plate was then washed with PBS containing 0.05% Tween-20 using an automatic plate washer. Anti-BTK antibody was prepared at 1:1000 dilution in 0.5% BSA in PBS (0.05% Tween-20) and added to the ELISA plate. The plate was incubated for 1 hr at room temperature while shaking. The plate was washed as described above and the secondary HRP antibody was prepared at 1:5000 dilution in 0.5% BSA in PBS (0.05% Tween-20). The plate was incubated and washed as described above. TMB was added to the plate, and OD650 was monitored until reaching 1 OD unit. The reaction was then stopped with addition of H2SO4. The plate was analyzed using Gen 5 software, and a 4 Parameter Logistic curve was employed to quantitate samples. Recombinant BTK (Invitrogen, Carlsbad, Calif., USA) was used for the standard curve.
A concentration designated as “A” is greater than 1 nM; a concentration designated as “B” is greater than 10 nM; and a concentration designated as “C” is greater than 50 nM.

TEC kinase = TEC kinase (Homo sapiens (Human), UniProt P42680); assay: Mass spectrometry for TEC kinase (tryptic digest); format: binding; conditions: 3 hrs at 10× excess, tryptic digestion
Chain of TEC kinase (P42680 whole entry): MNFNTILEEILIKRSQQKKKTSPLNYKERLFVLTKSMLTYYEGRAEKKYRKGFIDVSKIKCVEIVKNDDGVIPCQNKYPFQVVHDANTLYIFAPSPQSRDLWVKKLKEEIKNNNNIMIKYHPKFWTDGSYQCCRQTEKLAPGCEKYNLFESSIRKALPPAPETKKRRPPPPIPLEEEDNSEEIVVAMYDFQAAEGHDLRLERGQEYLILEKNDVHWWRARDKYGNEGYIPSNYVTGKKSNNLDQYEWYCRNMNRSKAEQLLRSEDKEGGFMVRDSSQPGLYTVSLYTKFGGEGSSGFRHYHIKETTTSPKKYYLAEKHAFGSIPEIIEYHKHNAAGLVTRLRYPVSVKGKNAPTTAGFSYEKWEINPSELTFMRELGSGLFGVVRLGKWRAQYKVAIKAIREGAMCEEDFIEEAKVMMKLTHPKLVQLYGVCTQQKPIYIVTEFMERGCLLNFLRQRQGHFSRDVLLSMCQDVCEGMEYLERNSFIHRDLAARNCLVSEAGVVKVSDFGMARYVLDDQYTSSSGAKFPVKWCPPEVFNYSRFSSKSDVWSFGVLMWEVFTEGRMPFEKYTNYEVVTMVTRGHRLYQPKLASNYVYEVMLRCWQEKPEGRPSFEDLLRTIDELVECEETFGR
Protocol: Mass Spectrometry for TEC Kinase (Compound I-2)
as §1, with “TEC” for “JAK3”, “(45” for “(33”, “(I-2) (450” for “(I-7) (327”, “incubation. […]” for “incubation.”, “(7.5” for “(5.5”
as §2
as §1, with “TEC” for “JAK3”, “(45” for “(33”, “(I-4) (450” for “(I-7) (327”, “incubation. […]” for “incubation.”, “(7.5” for “(5.5”
as §2, with “1800.” for “2200.”
TEC kinase (45 pmols; Invitrogen) was incubated with […] (450 pmols) for 3 hrs at 10× excess prior to tryptic digestion. […]

[3] = test system: BTK kinase activity (PLCγ2 phosphorylation) in Ramos cells; assay: Washout experiment with Ramos cells; format: cell-based, human; conditions: 100 nM compound for 1 hour, then washout
Protocol: Washout Experiment with Ramos Cells
Ramos cells were serum starved for one hour in RPMI media+1% glutamine at 37° C. After starvation, Ramos cells were treated with 100 nM compound diluted in serum free RPMI media for 1 hour. After compound treatment, the media was removed and cells were washed with compound-free media. Subsequently, Ramos cells were washed every 2 hours and resuspended in fresh compound-free media. Cells were collected at specified timepoints, treated with 1 ug anti-human IgM (Southern Biotech cat #2022-01) for 10 minutes on ice to induce BCR signaling and then washed in PBS. Ramos cells were then lysed in Cell Extraction Buffer (Invitrogen FNN0011) supplemented with Roche complete protease inhibitor tablets (Roche 11697498001) and phosphatase inhibitors (Roche 04 906 837 001) and 18 ug total protein lysate was loaded in each lane. Inhibition of BTK kinase activity was assayed by measuring its substrate (PLCγ2) phosphorylation by western blot with phospho-specific antibodies from Cell Signaling Technologies cat #3871. The results of this experiment with compounds I-2, I-4 and I-7 are depicted in FIGS. 1, 2 and 3.

BTK in Ramos cells [4] = molecular target: T1, BTK in Ramos cells; assay: Washout experiment with I-7 and probe compound I-215 in Ramos cells; format: cell-based; conditions: 0.1 μM, 1 hour, then washout
Protocol: Washout Experiment with I-7 and Probe Compound I-215
Ramos cells were incubated with 0.1 μM I-7 or a reversible BTK inhibitor control compound in serum free media for 1 hour at 37° C. The cells were then washed in compound-free media and lysed 0, 4, 6, or 8 hours after compound removal. Cell lysates were incubated with 1 μM I-215 for 1 hour at room temperature, then overnight at 4° C. with streptavidin-coupled agarose beads. Protein was boiled off the beads and BTK association was assessed by western blot. […] In contrast, with the reversible inhibitor control, 45% of BTK protein is unbound and available to the probe at 0 hours and by 4 hours 100% of BTK protein is unbound and available to bind the probe. All samples were normalized to the DMSO-treated cells harvested at 0 hours.

Molecule	IC50 [1] [nM]	modification of BTK by mass spectrometry (BTK)	also measured
C=CC(=O)N1CCOc2ccc(Nc3ncc(F)c(Nc4cccc(Cl)c4)n3)cc21 [Compound I-149, 1-(6-(4-(3-chlorophenylamino)-5-fluoropyrimidin-2-ylamino)-2H-benzo[b][1,4]oxazin-4(3H)-yl)prop-2-en-1-one]	10 to 100	completely modify	–
Cc1cnc(Nc2cccc(S(N)(=O)=O)c2)nc1Nc1ccc2c(c1)CCN(C(=O)CCl)C2 [Compound I-11, 3-(4-(2-(2-chloroacetyl)-1,2,3,4-tetrahydroisoquinolin-6-ylamino)-5-methylpyrimidin-2-ylamino)benzenesulfonamide]	–	–	modification of JAK3 kinase by mass spectrometry (JAK3 kinase): measurable modification
CC(C)=CC(=O)c1cccc(Nc2nc(Nc3cccc(OCCN(C)C)c3)ncc2F)c1 [Compound I-207]	100 to 1000	completely modify	–
C=CC(=O)Nc1cccc(Nc2nc(Nc3cccc(OC(F)(F)F)c3)ncc2F)c1 [Compound I-244, N-(3-(5-fluoro-2-(3-(trifluoromethoxy)phenylamino)pyrimidin-4-ylamino)phenyl)acrylamide]	10 to 100	completely modify	–
C=CC(=O)N(C)Cc1ccc(Nc2nc(Nc3ccccc3)ncc2C)cc1 [Compound I-219, N-methyl-N-(4-(5-methyl-2-(phenylamino)pyrimidin-4-ylamino)benzyl)acrylamide]	10 to 100	completely modify	–
C=CC(=O)N1CCC[C@@H](Nc2nc(Nc3cccc(OC)c3)ncc2F)C1 [Compound I-195, (R)-1-(3-(5-fluoro-2-(3-methoxyphenylamino)pyrimidin-4-ylamino)piperidin-1-yl)prop-2-en-1-one]	10 to 100	completely modify	–
C=CC(=O)Nc1cccc(Nc2nc(Nc3ccc(OCCOC)c(F)c3)ncc2F)c1 [Compound I-96, N-(3-(2-(3-fluoro-4-(2-methoxyethoxy)phenylamino)-5-fluoropyrimidin-4-ylamino)phenyl)acrylamide]	< 10	completely modify	>50% occupancy (concentration) (BTK in Ramos cells [2]): A (greater than 1 nM); >90% occupancy (concentration) (BTK in Ramos cells [2]): B (greater than 10 nM)
Cc1cccc(Nc2nc(Nc3cccc(NC(=O)/C=C/CN(C)C)c3)ncc2F)c1 [Compound I-4, (E)-4-(dimethylamino)-N-(3-(5-fluoro-4-(m-tolylamino)pyrimidin-2-ylamino)phenyl)but-2-enamide]	10 to 100	–	covalent modification of TEC kinase peptide GCLLNFLR by mass spectrometry (TEC kinase): reaction was complete; BTK Inhibition Type [3]: irreversible
C=C(C#N)C(O)c1ccc(Nc2nc(Nc3ccccc3)ncc2F)cc1 (stereo not drawn) [Compound I-161, 2-((4-(5-fluoro-2-(phenylamino)pyrimidin-4-ylamino)phenyl)(hydroxy)methyl)acrylonitrile]	–	completely modify	–
C=CC(=O)Nc1cccc(Nc2ncc(C)c(Nc3cccc(C)c3)n2)c1 [Compound I-2, N-(3-(5-methyl-4-(m-tolylamino)pyrimidin-2-ylamino)phenyl) acrylamide]	–	–	covalent modification of TEC kinase peptide GCLLNFLR by mass spectrometry (TEC kinase): reaction was complete; BTK Inhibition Type [3]: irreversible
2-((4-(5-fluoro-2-(3-trifluoromethoxyphenylamino)pyrimidin-4-ylamino)phenyl)(hydroxy)methyl)acrylonitrile [Compound I-163]	–	completely modify	–
C=CC(=O)Nc1cccc(Nc2nc(Nc3ccccc3)ncc2C)c1 [Compound I-7, N-(3-(5-methyl-2-(phenylamino)pyrimidin-4-ylamino)phenyl) acrylamide]	< 10	complete modification	modification of JAK3 kinase by mass spectrometry (JAK3 kinase): not entirely complete; covalent modification of TEC kinase peptide GCLLNFLR by mass spectrometry (TEC kinase): reaction was complete; BTK Inhibition Type [3]: irreversible; >50% occupancy (concentration) (BTK in Ramos cells [2]): A (greater than 1 nM); >90% occupancy (concentration) (BTK in Ramos cells [2]): B (greater than 10 nM); time BTK protein remains occupied after compound removal (BTK in Ramos cells [4]): over 8 hours
